Patent EP1841748B1, “ORGANOSELENIUM CONTAINING COMPOUNDS AND THEIR USE” (Seoul National University Industry Foundation, priority 2004, dated 2006)

Experiments:
[1] = Animal test: prevention of obesity under high-fat diet; format: in vivo, C57BL/6 mice; settings: for increase in body weight: 10 mg/kg/day orally over a 78-day period of high-fat diet (feed with 35 % fat), vehicle group 102 %; for increase in body weight relative to the vehicle group: 10 mg/kg/day orally, 78-day high-fat diet, fraction of vehicle group's increase
Procedure: Animal test was performed with mice in order to confirm the in vivo effect of HK101225. 14-weeks old C57BL/6 mice (SLC Co.) were used and a feed containing 35 % of fat was given to induce obesity. A vehicle, GW501516 (10 mg/kg/day) and HK101225 (10 mg/kg/day) were orally administered over a 78-day period of high-fat diet. […] Thus, it was confirmed that HK101225 has a strong prevention effect against obesity.

[2] = GTT (glucose tolerance test): improvement of diabetes; format: in vivo, mice; settings: after 78-day oral administration; for change of blood sugar level with time: followed to 120 minutes
Procedure: GTT (glucose tolerance test) was performed in order to confirm the diabetic improvement effect of the compound of the present invention. A vehicle, GW501516 and HK101225 were orally administered to mice over a 78-day period. Then, glucose (1.5 g/kg) was abdominally administered and change of blood sugar level with time was checked.

[3] = target: T1, PPARα (Homo sapiens, UniProt Q07869); experiment: Transfection assay (luciferase reporter, full-length PPARs plasmid DNA) in CV-1 cells; format: cell-based; settings: 24 hours treatment, luciferase calibrated with β-galactosidase
T1 construct: Full-length PPARs plasmid DNA, reporter DNA, which has luciferase activity; expressed in transfected cells; host or cells: CV-1 cells
T1 sequence (Q07869 1-468): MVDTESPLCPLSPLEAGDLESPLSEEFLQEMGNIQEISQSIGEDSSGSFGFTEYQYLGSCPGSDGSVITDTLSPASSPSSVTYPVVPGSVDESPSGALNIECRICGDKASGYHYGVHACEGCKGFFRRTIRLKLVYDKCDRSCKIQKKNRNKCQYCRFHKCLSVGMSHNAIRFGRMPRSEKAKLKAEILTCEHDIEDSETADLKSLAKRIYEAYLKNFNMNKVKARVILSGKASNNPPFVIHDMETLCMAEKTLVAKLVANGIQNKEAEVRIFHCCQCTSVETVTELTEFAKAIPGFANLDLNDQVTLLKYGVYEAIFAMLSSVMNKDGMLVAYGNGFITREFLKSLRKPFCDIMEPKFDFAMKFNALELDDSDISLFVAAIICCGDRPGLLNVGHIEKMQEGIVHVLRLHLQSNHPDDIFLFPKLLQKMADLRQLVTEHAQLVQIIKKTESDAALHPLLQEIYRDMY
Procedure: (§1) Transfection assay was performed using CV-1 cells. The cells were cultured with a DMEM medium containing 10 % FBS, DBS (delipidated) and 1 % penicillin/streptomycin in 37 °C of a transfection assay culture system containing 5 % of carbon dioxide on a 96-well plate. Test was performed in four stages - cell inoculation, transfection, treatment with the compound of the present invention and confirmation. The CV-1 cells were inoculated on the 96-well plate, 5,000 cells/well. Transfection was performed 24 hours later. Full-length PPARs plasmid DNA, reporter DNA, which has luciferase activity and thus enables confirmation of the activity for PPARs, and β-galactosidase DNA, which offers effective information on the transfection, were used. HK101225 prepared in Example 4 was dissolved in dimethylsulfoxide (DMSO) and treated to the cells at various concentrations. After 24 hours of culturing in an incubator, the cells were lysed with a lysis buffer and luciferase activity and β-galactosidase activity were measured using a luminometer and a microplate reader. The measured luciferase activity was calibrated with the β-galactosidase activity. The result was depicted on a graph and EC50 was determined.

[4] = target: T2, PPARγ (Homo sapiens, UniProt P37231); experiment: as above; format: cell-based; settings: 24 hours treatment, luciferase calibrated with β-galactosidase
T2 construct: Full-length PPARs plasmid DNA, reporter DNA, which has luciferase activity; expressed in transfected cells; host or cells: CV-1 cells
T2 sequence (P37231 1-505): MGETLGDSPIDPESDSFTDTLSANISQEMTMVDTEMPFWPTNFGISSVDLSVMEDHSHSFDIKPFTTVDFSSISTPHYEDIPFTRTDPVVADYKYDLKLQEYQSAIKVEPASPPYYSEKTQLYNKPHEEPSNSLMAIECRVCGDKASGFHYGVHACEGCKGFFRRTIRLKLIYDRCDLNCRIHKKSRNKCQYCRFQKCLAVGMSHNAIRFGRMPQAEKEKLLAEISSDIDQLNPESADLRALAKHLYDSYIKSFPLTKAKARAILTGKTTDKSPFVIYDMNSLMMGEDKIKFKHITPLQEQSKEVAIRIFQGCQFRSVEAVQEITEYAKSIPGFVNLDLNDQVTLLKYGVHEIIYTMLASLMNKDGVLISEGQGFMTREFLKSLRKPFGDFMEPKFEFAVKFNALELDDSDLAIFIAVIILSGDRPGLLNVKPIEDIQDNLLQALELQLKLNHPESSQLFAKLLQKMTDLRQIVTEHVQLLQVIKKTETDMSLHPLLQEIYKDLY
Procedure: as §1

[5] = target: T3, PPARδ (Homo sapiens, UniProt Q03181); experiment: as above; format: cell-based; settings: 24 hours treatment, luciferase calibrated with β-galactosidase
T3 construct: Full-length PPARs plasmid DNA, reporter DNA, which has luciferase activity; expressed in transfected cells; host or cells: CV-1 cells
T3 sequence (Q03181 1-441): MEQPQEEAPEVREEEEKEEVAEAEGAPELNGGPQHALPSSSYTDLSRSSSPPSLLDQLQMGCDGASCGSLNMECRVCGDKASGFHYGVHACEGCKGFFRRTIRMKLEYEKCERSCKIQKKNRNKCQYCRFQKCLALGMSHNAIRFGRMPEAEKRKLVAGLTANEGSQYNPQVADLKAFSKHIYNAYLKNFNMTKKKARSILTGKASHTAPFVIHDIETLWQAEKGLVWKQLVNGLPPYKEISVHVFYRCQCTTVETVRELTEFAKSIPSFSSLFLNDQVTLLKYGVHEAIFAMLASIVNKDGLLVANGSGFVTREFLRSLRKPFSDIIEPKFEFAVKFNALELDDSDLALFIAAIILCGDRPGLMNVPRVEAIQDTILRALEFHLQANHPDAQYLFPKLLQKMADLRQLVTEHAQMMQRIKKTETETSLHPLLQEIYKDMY
Procedure: as §1

[6] = tested on: CV-1 cells; experiment: MTT assay (cell toxicity); format: cell-based; settings: 24 hours, at the concentration of 50,000 times of the EC50 (1.87 nM) value
Procedure: Toxicity was tested by MTT assay for HK101225 prepared in Example 4. MTT is a water-soluble, yellow substance. However, when introduced in a living cell, it is transformed into a water-insoluble, purple crystal by the mitochondrial dehydrogenase. Cell toxicity can be tested by dissolving this substance in dimethylsulfoxide and measuring light absorbance at 550 nm. The test was performed as follows.
CV-1 cells were inoculated on a 96-well plate, 5,000 cells/well. After culturing for 24 hours in a humidified culture system of 37 °C containing 5 % of carbon dioxide, the cells were treated with HK101225 at various concentrations. MTT reagent was added after 24 hours of culturing. After culturing for about 15 minutes, the purple crystal was dissolved in dimethylsulfoxide and absorbance was measured with a microplate reader to confirm cell toxicity.

Cc1cc(SCc2sc(-c3ccc(C(F)(F)F)cc3)nc2C)ccc1OCC(=O)O [GW501516, [2-methyl-4-[[[4-methyl-2-[4-(trifluoromethyl)phenyl]-1,3-thiazol-5-yl]methyl]sulfanyl]phenoxy]acetic acid, reference compound]
increase in body weight [1]: 21% | increase in body weight relative to the vehicle group [1]: about 1/5 | change of blood sugar level with time ([2]; glucose 1.5 g/kg abdominally): blood sugar level lower than that of the vehicle group, but did not restore to the normal level

Cc1cc([Se]Cc2sc(-c3ccc(C(F)(F)F)cc3)nc2C)ccc1OCC(=O)O [HK101225, 2-[4-[[2-[4-(trifluoromethyl)phenyl]-4-methylthiazol-5-yl]methylselanyl]-2-methylphenoxy]acetic acid]
EC50 [3]: > 10 µM | EC50 [4]: > 10 µM | EC50 [5]: 0.00187 µM | toxicity [6]: no toxicity | increase in body weight [1]: 21% | increase in body weight relative to the vehicle group [1]: about 1/5 | fasting blood sugar level ([2]; compared with vehicle and GW501516 groups): lower fasting blood sugar level than the groups to which the vehicle and GW501516 were administered | time to complete glucose clearance ([2]; glucose 1.5 g/kg abdominally): 100 min | change of blood sugar level with time ([2]; glucose 1.5 g/kg abdominally): rapid decrease of blood sugar level between 20 and 40 minutes
